The test system of experiment [1] is ABUTH. Nature of the experiment: Post-emergence herbicidal action against ABUTH. In kind it is in vivo, Abutilon theophrasti. As to conditions: Abutilon theophrasti, 504 h, visual assessment about 3 weeks after treatment vs untreated controls; for pest or weed control at 5 g/ha: dosage 5 g/ha; for pest or weed control at 20 g/ha: dosage 20 g/ha. The method, boiled down:
(§1)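 Post-emergence greenhouse test; one-leaf stage, 2–3 wk post-sowing, sandy loam. Foliar spray of WP/EC in water, 600–800 l/ha, +0.2% wetting agent. Visual % action at ~3 wk vs untreated (100% = plants dead).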

For experiment [2], the system named is ALOMY. Nature of the experiment: Post-emergence herbicidal action against ALOMY. In kind it is in vivo, Alopecurus myosuroides. As to conditions: Alopecurus myosuroides, 504 h, visual assessment about 3 weeks after treatment vs untreated controls; for pest or weed control at 20 g/ha: dosage 20 g/ha. The procedure, abridged:
as §1

The test system of experiment [3] is MATIN. Briefly: Pre-emergence herbicidal action against MATIN. The class given is in vivo, Matricaria inodora. As to conditions: Tripleurospermum inodorum, 504 h; for pest or weed control at 20 g/ha: dosage 20 g/ha; for pest or weed control at 80 g/ha: dosage 80 g/ha. The procedure, abridged: (§2)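 Herbicidal effect was assessed 3 weeks after treatment by visual comparison with untreated controls, 100% denoting dead plants. Aqueous WP or EC preparations had been applied at 600 to 800 l/ha with 0.2% wetting agent to the soil covering freshly sown seeds.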

Experiment [4] deals with PHBPU. Briefly: Post-emergence herbicidal action against PHBPU. The class given is in vivo, Pharbitis purpurea. As to conditions: Ipomoea purpurea, 504 h, dosage 20 g/ha. The procedure, abridged:
as §1

The subject of experiment [5] is ECHCG. Briefly: Post-emergence herbicidal action against ECHCG. To be noted: Echinochloa crus-galli, 504 h, dosage 20 g/ha. In kind it is in vivo, Echinochloa crus-galli. The method, boiled down: as §1
The test system of the next experiment is AVEFA. Nature of the experiment: Pre-emergence herbicidal action against AVEFA. In kind it is in vivo, Avena fatua. To be noted: Avena fatua, 504 h; 80 g/ha, pre-emergence. The procedure, abridged:
as §2

In experiment [6] the test system is SETVI. Briefly: Pre-emergence herbicidal action against SETVI. As to conditions: Setaria viridis, 504 h, dosage 80 g/ha. The class given is in vivo, Setaria viridis. The procedure, abridged:
as §2

For experiment [7], the system named is VIOTR. Briefly: Post-emergence herbicidal action against VIOTR. As to conditions: Viola tricolor, 504 h. In kind it is in vivo, Viola tricolor. The method, boiled down: as §1
The subject of experiment [8] is VIOTR. Nature of the experiment: Pre-emergence herbicidal action against VIOTR. In kind it is in vivo, Viola tricolor. As to conditions: Viola tricolor, 504 h; for pest or weed control at 80 g/ha: dosage 80 g/ha. The procedure, abridged: as §2
The test system of the next experiment is LOLRI. Briefly: Pre-emergence herbicidal action against LOLRI. In kind it is in vivo, Lolium rigidum. As to conditions: Lolium rigidum, 504 h, 80 g/ha. From the text: Seeds of monocotyledonous and dicotyledonous weed plants and crop plants are laid out in sandy loam soil in wood-fiber pots and covered with soil. The compounds of the invention, formulated in the form of wettable powders (WP) or as emulsion concentrates (EC), are then applied to the surface of the covering soil in the form of an aqueous suspension or emulsion at a water application rate equivalent to 600 to 800 l/ha, with addition of 0.2% wetting agent. After the treatment, the pots are placed in a greenhouse and kept under good growth conditions for the trial plants. The damage to the test plants is scored visually after a test period of 3 weeks by comparison with untreated controls (herbicidal activity in percent (%): 100% activity=the plants have died, 0% activity=like control plants). […] The tables below illustrate, in an illustrative manner, the post-emergence herbicidal action of the compounds of the invention, the herbicidal activity being stated in percent.

The subject of experiment [9] is SETVI. Briefly: Post-emergence herbicidal action against SETVI. The class given is in vivo, Setaria viridis. As to conditions: Setaria viridis, 504 h. The procedure, abridged:
as §1

For experiment [10], the system named is VERPE. Briefly: Post-emergence herbicidal action against VERPE. As to conditions: Veronica persica, 504 h, 20 g/ha. In kind it is in vivo, Veronica persica. The method, boiled down:
as §1

Experiment [11] has as its system MATIN. Briefly: Post-emergence herbicidal action against MATIN. The class given is in vivo, Matricaria inodora. To be noted: Tripleurospermum inodorum, 504 h. The procedure, abridged:
as §1

Experiment [12] has as its system VERPE. Briefly: Pre-emergence herbicidal action against VERPE. The class given is in vivo, Veronica persica. To be noted: Veronica persica, 504 h, dosage 80 g/ha. The procedure, abridged:
as §2

Experiment [13] concerns ECHCG. Briefly: Pre-emergence herbicidal action against ECHCG. The class given is in vivo, Echinochloa crus-galli. To be noted: Echinochloa crus-galli, 504 h, 80 g/ha. The method, boiled down: as §2
The subject of experiment [14] is ALOMY. Briefly: Pre-emergence herbicidal action against ALOMY. The class given is in vivo, Alopecurus myosuroides. To be noted: Alopecurus myosuroides, 504 h, pre-emergence; for pest or weed control at 80 g/ha: scored visually after 3 weeks vs untreated controls (100% = plants have died, 0% = like control plants); for pest or weed control at 20 g/ha: scored visually after 3 weeks, 100% = plants have died, 0% = like control plants. The method, boiled down:
as §2

Experiment [15] has as its system ABUTH. Nature of the experiment: Pre-emergence herbicidal action against ABUTH. The class given is in vivo, Abutilon theophrasti. As to conditions: Abutilon theophrasti, 504 h; for pest or weed control at 80 g/ha: scored visually after 3 weeks vs untreated controls (100% = plants have died, 0% = like control plants); for pest or weed control at 20 g/ha: dosage 20 g/ha, scored visually after 3 weeks vs untreated controls, 100% = plants have died, 0% = like control plants, read-out: Pre-emergence action against ABUTH (herbicidal activity in percent). The procedure, abridged:
as §2

Experiment [16] deals with AMARE. Briefly: Pre-emergence herbicidal action against AMARE. In kind it is in vivo, Amaranthus retroflexus. As to conditions: Amaranthus retroflexus, 504 h, scored visually after 3 weeks vs untreated controls, 100% = plants have died, 0% = like control plants. The method, boiled down: as §2
Experiment [17] concerns AMARE. Briefly: Post-emergence herbicidal action against AMARE. In kind it is in vivo, Amaranthus retroflexus. To be noted: Amaranthus retroflexus, 504 h, 20 g/ha, visual assessment about 3 weeks after treatment, 100% = plants have died, 0% = like control plants. The method, boiled down: as §1
The subject of experiment [18] is PHBPU. Nature of the experiment: Pre-emergence herbicidal action against PHBPU. The class given is in vivo, Pharbitis purpurea. As to conditions: Ipomoea purpurea, 504 h, dosage 80 g/ha. The method, boiled down: as §2

The structures appear in SMILES notation.

With `CSc1c(C(=O)Nc2nnnn2C)ccc(C(F)(F)F)c1C(=O)NC1CC1` [Example 1-83], the pest or weed control at 5 g/ha in the experiment on ABUTH [1] turned out to be 90%; in the experiment with VIOTR [7] (5 g/ha), 90%; with SETVI [9] (dosage 5 g/ha), 80%; with MATIN [11] (dosage 5 g/ha), 80%. The pest or weed control at 20 g/ha was determined as 90% in the experiment with ABUTH [1]; 100% in the experiment with ALOMY [2]; 90% in the experiment with MATIN [3]; 90% in the experiment with PHBPU [4]; 90% in the experiment on ECHCG [5]; 90% in the experiment with VIOTR [7] (20 g/ha). For the same compound, the pest or weed control at 20 g/ha in the experiment with VIOTR [8] (dosage 20 g/ha) came out at 90%; in the experiment on SETVI [9] (dosage 20 g/ha), 100%; with VERPE [10] it was 90%; in the experiment with MATIN [11] (dosage 20 g/ha), 90%; in the experiment on ALOMY [14], 80%; in the experiment on ABUTH [15], 100%. This compound also had a pest or weed control at 20 g/ha in the experiment on AMARE [17] of 100%. In addition, the pest or weed control at 80 g/ha with MATIN [3] was determined as 100%; with AVEFA, 80%; with SETVI [6], 100%; in the experiment with VIOTR [8], 100%; with LOLRI, 80%; in the experiment with VERPE [12], 80%. Further, the pest or weed control at 80 g/ha in the experiment on ECHCG [13] was determined as 90%; in the experiment with ALOMY [14], 100%; with ABUTH [15], 100%; in the experiment with AMARE [16], 100%.
On to `CCCNC(=O)c1c(Br)ccc(C(=O)Nc2nnnn2CC)c1Cl` [Example 2-184], for which the results for the pest or weed control at 5 g/ha in the experiment with ABUTH [1] and with ALOMY [2] (dosage 5 g/ha) were 90% and 80%, respectively. Further, the pest or weed control at 20 g/ha in the experiment with ABUTH [1] was found to be 90%; in the experiment on ALOMY [2], 100%; in the experiment on MATIN [3] it was 90%; in the experiment on ECHCG [5], 100%; in the experiment with ALOMY [14] it was 90%; in the experiment on ABUTH [15], 100%. The pest or weed control at 20 g/ha in the experiment with AMARE [16] (20 g/ha) and in the experiment on AMARE [17] was 100% in each case. The pest or weed control at 80 g/ha with MATIN [3] came out at 100%; with AVEFA, 90%; with VIOTR [8], 100%; in the experiment with LOLRI, 80%; with VERPE [12] it was 100%; in the experiment on ECHCG [13] it was 100%. For the same compound, the pest or weed control at 80 g/ha amounted to 90% in the experiment with PHBPU [18], 100% with ALOMY [14], 100% in the experiment with ABUTH [15] and 100% in the experiment with AMARE [16].

These data come from US12655116B2, “Substituted isophthalic acid diamides” (Bayer Aktiengesellschaft, priority 2020, dated 2026).
